Data on 3 compounds can be found in BindingDB's records for doi:10.1016/s0022-2836(03)00862-3 (Morphochem, 2003).

As usually defined, the IC50 is the concentration that gives 50% inhibition. Read a high IC50 as weaker potency.

The assay deals with Methionine aminopeptidase (Staphylococcus aureus (strain MW2), UniProt P0A079). Briefly: MetAP Inhibition Assay. To be noted: pH 7.5; 22 °C. As for the experimental part:
The MetAP reaction with Co2+ as a cofactor is coupled to a prolyl aminopeptidase (ProAP) using Met-Pro-p-nitroanilide as substrate. MetAP-catalyzed cleavage of the N-terminal methionine produces prolyl-p-nitroanilide, which is rapidly hydrolyzed by ProAP to release a chromogenic product. This allows the MetAP reaction to be continuously monitored at 405 nm on a UVVIS spectrophotometer. The initial rate was calculated from the early part of the reaction progress curve (<5 min). Activity assays were performed in triplicate using eight to 16 concentrations of substrate or inhibitor.

Sequence of Methionine aminopeptidase (P0A079 whole entry): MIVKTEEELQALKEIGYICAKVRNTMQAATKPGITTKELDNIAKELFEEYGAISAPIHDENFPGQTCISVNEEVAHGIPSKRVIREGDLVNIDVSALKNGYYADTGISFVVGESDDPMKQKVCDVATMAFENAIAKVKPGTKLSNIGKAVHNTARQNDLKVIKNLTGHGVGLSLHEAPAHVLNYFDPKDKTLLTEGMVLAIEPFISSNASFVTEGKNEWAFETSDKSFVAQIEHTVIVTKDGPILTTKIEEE

Regarding `Cn1cnnc1SCc1ccccc1` [1,2,4-triazole derivative.], the IC50 is greater than 100000 nM.
`CSCC[C@H](N)c1nnc(SCc2ccccc2)[nH]1` [1,2,4-triazole derivative.] displayed a half-maximal inhibitory concentration (IC50) of 43.7 nM.
`Nc1n[nH]c(SCc2ccccc2)n1` [1,2,4-triazole derivative.] showed an IC50 of 599 nM.
